Laboratory results taken from patent US20240043427A1 (Gilead Sciences, Inc., priority 2020, published 2024).

Key:
[1] = target: T1, CD73 (Homo sapiens (Human), UniProt P21589); assay: MDA-MB-231 Cell Based CD73 Activity Assay (DMEM); conditions: MDA-MB-231-GFP cells, DMEM medium with 10% human plasma, 200 uM AMP
[2] = target: T1, CD73; type: biochemical; conditions: 1 mM NaH2PO4 in enzyme buffer, CD73 0.3 nM, AMP 15 uM

T1 sequence (P21589 27-574): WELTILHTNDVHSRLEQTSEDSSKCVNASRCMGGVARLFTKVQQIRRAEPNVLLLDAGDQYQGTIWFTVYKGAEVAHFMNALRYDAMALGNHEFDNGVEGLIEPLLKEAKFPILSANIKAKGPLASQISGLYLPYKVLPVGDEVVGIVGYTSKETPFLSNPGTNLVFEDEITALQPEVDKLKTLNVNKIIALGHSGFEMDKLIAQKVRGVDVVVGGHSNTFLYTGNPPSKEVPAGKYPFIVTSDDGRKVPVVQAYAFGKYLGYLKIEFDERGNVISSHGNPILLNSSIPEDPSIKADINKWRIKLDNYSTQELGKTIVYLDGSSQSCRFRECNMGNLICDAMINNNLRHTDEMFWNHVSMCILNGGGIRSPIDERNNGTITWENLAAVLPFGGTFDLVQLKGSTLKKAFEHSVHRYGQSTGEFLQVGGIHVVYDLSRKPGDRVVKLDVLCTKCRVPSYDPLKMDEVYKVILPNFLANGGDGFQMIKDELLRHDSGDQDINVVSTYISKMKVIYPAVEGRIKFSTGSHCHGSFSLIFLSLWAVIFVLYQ

Row | EC50 [1] [nM] | IC50 [2] [nM] | Structure (SMILES)
1 | 0.24 | 1.27 | O=C1N(CC(F)(F)F)c2cc([C@H]3C[C@@H]3c3cc(-c4c[nH]c(=O)[nH]c4=O)nn4ccnc34)ccc2C12CCC2 [Example 384, 5-(8-((1S,2S)-2-(2′-oxo-1′-(2,2,2-trifluoroethyl)spiro[cyclobutane-1,3′-indolin]-6′-yl)cyclopropyl)imidazo[1,2-b]pyridazin-6-yl)pyrimidine-2,4(1H,3H)-dione]
2 | 0.25 | 0.68 | O=C1N(CC(F)(F)F)c2cc([C@H]3C[C@@H]3c3cc(-c4c[nH]c(=O)[nH]c4=O)nn4c(F)cnc34)ccc2C12CCCC2 [Example 385, 5-(3-fluoro-8-((1S,2S)-2-(2′-oxo-1′-(2,2,2-trifluoroethyl)spiro[cyclopentane-1,3′-indolin]-6′-yl)cyclopropyl)imidazo[1,2-b]pyridazin-6-yl)pyrimidine-2,4(1H,3H)-dione]
3 | 0.28 | 0.92 | O=C1N(CC(F)(F)F)c2cc([C@H]3C[C@@H]3c3cc(-c4c[nH]c(=O)[nH]c4=O)nn4c(F)cnc34)ccc2C12CCC2 [Example 386, 5-(3-fluoro-8-((1S,2S)-2-(2′-oxo-1′-(2,2,2-trifluoroethyl)spiro[cyclobutane-1,3′-indolin]-6′-yl)cyclopropyl)imidazo[1,2-b]pyridazin-6-yl)pyrimidine-2,4(1H,3H)-dione]
4 | 0.36 | 1.27 | O=C1N(CC(F)(F)F)c2cc([C@H]3C[C@@H]3c3cc(-c4c[nH]c(=O)[nH]c4=O)nn4ccnc34)ccc2C12CCCC2 [Example 387, 5-(8-((1S,2S)-2-(2′-oxo-1′-(2,2,2-trifluoroethyl)spiro[cyclopentane-1,3′-indolin]-6′-yl)cyclopropyl)imidazo[1,2-b]pyridazin-6-yl)pyrimidine-2,4(1H,3H)-dione]
5 | 0.21 | 0.41 | O=C1N(CC(F)(F)F)c2cc([C@H]3C[C@@H]3c3cc(-c4c[nH]c(=O)[nH]c4=O)nn4c(Cl)cnc34)ccc2C12CC2 [Example 388, 5-(3-chloro-8-((1S,2S)-2-(2′-oxo-1′-(2,2,2-trifluoroethyl)spiro[cyclopropane-1,3′-indolin]-6′-yl)cyclopropyl)imidazo[1,2-b]pyridazin-6-yl)pyrimidine-2,4(1H,3H)-dione]
6 | 0.34 | 1.25 | O=c1[nH]cc(-c2cc([C@H]3C[C@@H]3c3cc4c(cn3)c(F)cn4CC(F)(F)F)c3nccn3n2)c(=O)[nH]1 [Example 392, 5-(8-((1S,2S)-2-(3-fluoro-1-(2,2,2-trifluoroethyl)-1H-pyrrolo[3,2-c]pyridin-6-yl)cyclopropyl)imidazo[1,2-b]pyridazin-6-yl)pyrimidine-2,4(1H,3H)-dione]
7 | 0.16 | 0.74 | O=c1[nH]cc(-c2cc([C@H]3C[C@@H]3c3ccc4c(F)nn(CC(F)(F)F)c4c3)c3nccn3n2)c(=O)[nH]1 [Example 393, 5-(8-((1S,2S)-2-(3-fluoro-1-(2,2,2-trifluoroethyl)-1H-indazol-6-yl)cyclopropyl)imidazo[1,2-b]pyridazin-6-yl)pyrimidine-2,4(1H,3H)-dione]
8 | > 250 | 5.94 | O=c1[nH]cc(-c2cc([C@H]3C[C@@H]3c3cc(C(F)(F)F)c4cccnc4c3)c3nccn3n2)c(=O)[nH]1 [Example 394, 5-(8-((1S,2S)-2-(5-(trifluoromethyl)quinolin-7-yl)cyclopropyl)imidazo[1,2-b]pyridazin-6-yl)pyrimidine-2,4(1H,3H)-dione]
9 | 29.9 | 2.1 | O=c1[nH]cc(-c2cc([C@H]3C[C@@H]3c3cnc4c(C(F)(F)F)cccc4c3)c3nccn3n2)c(=O)[nH]1 [Example 395, 5-(8-((1S,2S)-2-(8-(trifluoromethyl)quinolin-3-yl)cyclopropyl)imidazo[1,2-b]pyridazin-6-yl)pyrimidine-2,4(1H,3H)-dione]
10 | 22.5 | 15.3 | O=c1[nH]cc(-c2cc(N3CC(F)(C(F)(F)F)C3)c3nccn3n2)c(=O)[nH]1 [Example 397, 5-(8-(3-fluoro-3-(trifluoromethyl)azetidin-1-yl)imidazo[1,2-b]pyridazin-6-yl)pyrimidine-2,4(1H,3H)-dione]
11 | 29.5 | 17.1 | O=c1[nH]cc(-c2cc(N3CC4(CCC4)C3)c3nccn3n2)c(=O)[nH]1 [Example 398, 5-(8-(2-azaspiro[3.3]heptan-2-yl)imidazo[1,2-b]pyridazin-6-yl)pyrimidine-2,4(1H,3H)-dione]
12 | 27 | 12.2 | CC1(C(F)F)CN(c2cc(-c3c[nH]c(=O)[nH]c3=O)nn3ccnc23)C1 [Example 399, 5-(8-(3-(difluoromethyl)-3-methylazetidin-1-yl)imidazo[1,2-b]pyridazin-6-yl)pyrimidine-2,4(1H,3H)-dione]
13 | 547 | 207 | O=c1[nH]cc(-c2cc(N3CC(C4CC4(F)F)C3)c3nccn3n2)c(=O)[nH]1 (stereo not shown) [Example 400, 5-(8-(3-(2,2-difluorocyclopropyl)azetidin-1-yl)imidazo[1,2-b]pyridazin-6-yl)pyrimidine-2,4(1H,3H)-dione]
14 | 53 | 12.6 | O=c1[nH]cc(-c2cc(N3CC(C4CCC4)C3)c3nccn3n2)c(=O)[nH]1 [Example 401, 5-(8-(3-cyclobutylazetidin-1-yl)imidazo[1,2-b]pyridazin-6-yl)pyrimidine-2,4(1H,3H)-dione]
15 | 136 | 53.2 | O=c1[nH]cc(-c2cc(N3CC(F)(C(F)(F)F)C3)n3ncnc3n2)c(=O)[nH]1 [Example 402, 5-(7-(3-fluoro-3-(trifluoromethyl)azetidin-1-yl)-[1,2,4]triazolo[1,5-a]pyrimidin-5-yl)pyrimidine-2,4(1H,3H)-dione]
16 | 28.5 | 8.94 | O=c1[nH]cc(-c2cc(N3CC(C(F)F)C3)c3nccn3n2)c(=O)[nH]1 [Example 403, 5-(8-(3-(difluoromethyl)azetidin-1-yl)imidazo[1,2-b]pyridazin-6-yl)pyrimidine-2,4(1H,3H)-dione]
17 | 77.6 | 22.9 | O=c1[nH]cc(-c2cc(N3CC(C4CC4)C3)c3nccn3n2)c(=O)[nH]1 [Example 404, 5-(8-(3-cyclopropylazetidin-1-yl)imidazo[1,2-b]pyridazin-6-yl)pyrimidine-2,4(1H,3H)-dione]
18 | 21.6 | 8.3 | O=c1[nH]cc(-c2cc(N3CC4(CCC4(F)F)C3)c3nccn3n2)c(=O)[nH]1 [Example 405, 5-(8-(5,5-difluoro-2-azaspiro[3.3]heptan-2-yl)imidazo[1,2-b]pyridazin-6-yl)pyrimidine-2,4(1H,3H)-dione]
19 | 98.2 | 25.6 | O=c1[nH]cc(-c2cc(N3CC4(C3)CC4(F)F)c3nccn3n2)c(=O)[nH]1 [Example 406, 5-(8-(1,1-difluoro-5-azaspiro[2.3]hexan-5-yl)imidazo[1,2-b]pyridazin-6-yl)pyrimidine-2,4(1H,3H)-dione]
20 | 37.8 | 10.7 | CC(C)(F)C1CN(c2cc(-c3c[nH]c(=O)[nH]c3=O)nn3ccnc23)C1 [Example 409, 5-(8-(3-(2-fluoropropan-2-yl)azetidin-1-yl)imidazo[1,2-b]pyridazin-6-yl)pyrimidine-2,4(1H,3H)-dione]
21 | 928 | 817 | O=c1[nH]cc(-c2cc(C3CCOCC3)c3nccn3n2)c(=O)[nH]1 [Example 410, 5-(8-(tetrahydro-2H-pyran-4-yl)imidazo[1,2-b]pyridazin-6-yl)pyrimidine-2,4(1H,3H)-dione]
22 | 3.93 | 0.79 | N#Cc1ccc([C@H]2C[C@@H]2c2cc(-c3c[nH]c(=O)[nH]c3=O)nn3c(F)cnc23)cc1F [Example 415, 4-((1S,2S)-2-(6-(2,4-dioxo-1,2,3,4-tetrahydropyrimidin-5-yl)-3-fluoroimidazo[1,2-b]pyridazin-8-yl)cyclopropyl)-2-fluorobenzonitrile]
23 | 4.71 | 0.96 | O=c1[nH]cc(-c2cc([C@H]3C[C@@H]3c3ccc(C(F)F)cc3)c3nccn3n2)c(=O)[nH]1 [Example 418, 5-(8-((1S,2S)-2-(4-(difluoromethyl)phenyl)cyclopropyl)imidazo[1,2-b]pyridazin-6-yl)pyrimidine-2,4(1H,3H)-dione]
24 | 8.9 | 1.23 | O=c1[nH]cc(-c2cc([C@H]3C[C@@H]3c3ccc(C(F)F)cc3)c3ncc(F)n3n2)c(=O)[nH]1 [Example 419, 5-(8-((1S,2S)-2-(4-(difluoromethyl)phenyl)cyclopropyl)-3-fluoroimidazo[1,2-b]pyridazin-6-yl)pyrimidine-2,4(1H,3H)-dione]
25 | 13.7 | 4.87 | CC1(C)CN(c2cc(-c3c[nH]c(=O)[nH]c3=O)nc3ncnn23)CC1(F)F [Example 420, 5-(7-(3,3-difluoro-4,4-dimethylpyrrolidin-1-yl)-[1,2,4]triazolo[1,5-a]pyrimidin-5-yl)pyrimidine-2,4(1H,3H)-dione]
26 | 65.1 | 31 | CC1(C)CN(c2cc(-c3c[nH]c(=O)[nH]c3=O)nc3nccn23)CC1(F)F [Example 421, 5-(5-(3,3-difluoro-4,4-dimethylpyrrolidin-1-yl)imidazo[1,2-a]pyrimidin-7-yl)pyrimidine-2,4(1H,3H)-dione]
27 | 155 | 72.7 | Cc1nc2c(N3CC(C)(C)C(F)(F)C3)cc(-c3c[nH]c(=O)[nH]c3=O)nn2c1F [Example 422, 5-(8-(3,3-difluoro-4,4-dimethylpyrrolidin-1-yl)-3-fluoro-2-methylimidazo[1,2-b]pyridazin-6-yl)pyrimidine-2,4(1H,3H)-dione]
28 | 76.4 | 39.2 | O=c1[nH]cc(-c2cc(N3CC(F)(CO)C3)c3nccn3n2)c(=O)[nH]1 [Example 423, 5-(8-(3-fluoro-3-(hydroxymethyl)azetidin-1-yl)imidazo[1,2-b]pyridazin-6-yl)pyrimidine-2,4(1H,3H)-dione]
29 | 4.1 | 1.64 | N#Cc1cc(F)c([C@H]2C[C@@H]2c2cc(-c3c[nH]c(=O)[nH]c3=O)nn3ccnc23)c(F)c1 [Example 424, 4-((1S,2S)-2-(6-(2,4-dioxo-1,2,3,4-tetrahydropyrimidin-5-yl)imidazo[1,2-b]pyridazin-8-yl)cyclopropyl)-3,5-difluorobenzonitrile]
